# Results from ChEMBL document CHEMBL1250443, “Microarray-based method for monitoring yeast overexpression strains reveals small-molecule targets in TOR pathway” (Nat Chem Biol, 2006).
# Assays:
# Saccharomyces cerevisiae [1] = experiment: Increase of GUF1 gene expression in wild-type Saccharomyces cerevisiae transformed with overexpression plasmids by microarray; format: functional
# Saccharomyces cerevisiae [2] = experiment: Decrease of RIM11 gene expression in wild-type Saccharomyces cerevisiae transformed with overexpression plasmids by microarray; format: functional
# [3] = biological target: T1, Translation factor GUF1, mitochondrial (Saccharomyces cerevisiae S288c, UniProt P46943); experiment: Inhibition of yeast Guf1
# T1 sequence (P46943 whole entry): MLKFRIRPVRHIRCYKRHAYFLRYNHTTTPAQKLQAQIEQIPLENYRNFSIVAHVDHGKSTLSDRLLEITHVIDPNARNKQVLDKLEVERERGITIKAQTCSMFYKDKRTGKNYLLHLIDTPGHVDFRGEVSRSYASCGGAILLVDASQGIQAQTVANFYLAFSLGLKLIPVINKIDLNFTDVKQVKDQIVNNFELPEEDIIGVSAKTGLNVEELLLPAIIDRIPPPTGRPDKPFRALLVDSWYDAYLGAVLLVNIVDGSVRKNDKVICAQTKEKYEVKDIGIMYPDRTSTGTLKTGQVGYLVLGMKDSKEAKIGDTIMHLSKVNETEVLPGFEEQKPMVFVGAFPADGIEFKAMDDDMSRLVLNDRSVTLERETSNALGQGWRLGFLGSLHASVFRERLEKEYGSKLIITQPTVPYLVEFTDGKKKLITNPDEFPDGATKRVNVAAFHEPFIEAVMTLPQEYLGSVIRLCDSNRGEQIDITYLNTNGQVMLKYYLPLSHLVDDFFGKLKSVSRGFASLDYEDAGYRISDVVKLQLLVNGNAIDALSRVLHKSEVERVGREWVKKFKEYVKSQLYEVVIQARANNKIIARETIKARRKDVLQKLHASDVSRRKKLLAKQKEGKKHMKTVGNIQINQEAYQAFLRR
# Saccharomyces cerevisiae [4] = experiment: Increase of FMP38 gene expression in wild-type Saccharomyces cerevisiae transformed with overexpression plasmids by microarray; format: functional
# Saccharomyces cerevisiae [5] = experiment: Increase of HMI1 gene expression in wild-type Saccharomyces cerevisiae transformed with overexpression plasmids by microarray; format: functional
# Saccharomyces cerevisiae [6] = experiment: Increase of MRPS28 gene expression in wild-type Saccharomyces cerevisiae transformed with overexpression plasmids by microarray; format: functional
# Saccharomyces cerevisiae [7] = experiment: Decrease of YKR75C gene expression in wild-type Saccharomyces cerevisiae transformed with overexpression plasmids by microarray; format: functional
# Saccharomyces cerevisiae [8] = experiment: Decrease of SGN1 gene expression in wild-type Saccharomyces cerevisiae transformed with overexpression plasmids by microarray; format: functional
# Saccharomyces cerevisiae [9] = experiment: Decrease of YDR222W gene expression in wild-type Saccharomyces cerevisiae transformed with overexpression plasmids by microarray; format: functional
# Saccharomyces cerevisiae [10] = experiment: Decrease of YJL051W gene expression in wild-type Saccharomyces cerevisiae transformed with overexpression plasmids by microarray; format: functional
# Saccharomyces cerevisiae [11] = experiment: Decrease of YMD8 gene expression in wild-type Saccharomyces cerevisiae transformed with overexpression plasmids by microarray; format: functional
# Saccharomyces cerevisiae [12] = experiment: Increase of MDL1 gene expression in wild-type Saccharomyces cerevisiae transformed with overexpression plasmids by microarray; format: functional
# Saccharomyces cerevisiae [13] = experiment: Increase of YRR1 gene expression in wild-type Saccharomyces cerevisiae transformed with overexpression plasmids by microarray; format: functional
# Saccharomyces cerevisiae [14] = experiment: Increase of MAM1 gene expression in wild-type Saccharomyces cerevisiae transformed with overexpression plasmids by microarray; format: functional
# Saccharomyces cerevisiae [15] = experiment: Increase of YDR514C gene expression in wild-type Saccharomyces cerevisiae transformed with overexpression plasmids by microarray; format: functional
# Saccharomyces cerevisiae [16] = experiment: Increase of SUV3 gene expression in wild-type Saccharomyces cerevisiae transformed with overexpression plasmids by microarray; format: functional
# Saccharomyces cerevisiae [17] = experiment: Increase of PET111 gene expression in wild-type Saccharomyces cerevisiae transformed with overexpression plasmids by microarray; format: functional
# Saccharomyces cerevisiae [18] = experiment: Decrease of HOS1 gene expression in wild-type Saccharomyces cerevisiae transformed with overexpression plasmids by microarray; format: functional
# Saccharomyces cerevisiae [19] = experiment: Decrease of FET4 gene expression in wild-type Saccharomyces cerevisiae transformed with overexpression plasmids by microarray; format: functional
smiles,measurement,setting,value
O=C1C(Nc2ccccc2)=CC(=O)c2ncccc21,fold change (FC),Saccharomyces cerevisiae [1],5
same,fold change (FC),Saccharomyces cerevisiae [2],-3.3
same,IC50,[3],300 µM
same,fold change (FC),Saccharomyces cerevisiae [4],3.1
same,fold change (FC),Saccharomyces cerevisiae [5],2.9
same,fold change (FC),Saccharomyces cerevisiae [6],2.1
same,fold change (FC),Saccharomyces cerevisiae [7],-2.1
same,fold change (FC),Saccharomyces cerevisiae [8],-2.1
same,fold change (FC),Saccharomyces cerevisiae [9],-2.4
same,fold change (FC),Saccharomyces cerevisiae [10],-2.1
same,fold change (FC),Saccharomyces cerevisiae [11],-2
same,fold change (FC),Saccharomyces cerevisiae [12],2.2
same,fold change (FC),Saccharomyces cerevisiae [13],2.8
same,fold change (FC),Saccharomyces cerevisiae [14],2.1
same,fold change (FC),Saccharomyces cerevisiae [15],2.7
same,fold change (FC),Saccharomyces cerevisiae [16],2.4
same,fold change (FC),Saccharomyces cerevisiae [17],2.3
same,fold change (FC),Saccharomyces cerevisiae [18],-2.4
same,fold change (FC),Saccharomyces cerevisiae [19],-4.3
